# Source: ChEMBL document CHEMBL2150920, “Discovery of a potent and selective small molecule hGPR91 antagonist” (Bioorg Med Chem Lett, 2011)
# What was measured:
# Succinate receptor 1 [1] = molecular target: T1, Succinate receptor 1 (Rattus norvegicus, UniProt Q6IYF9); test: Antagonist activity at rat GPR91 receptor expressed in CHO-K1 cells co-expressing Galpha and Gqi5 G-protein assessed as inhibition of succinate-induced increase in intracellular calcium level by FLIPR assay; assay type: functional, cell-based
# T1 sequence (Q6IYF9 whole entry): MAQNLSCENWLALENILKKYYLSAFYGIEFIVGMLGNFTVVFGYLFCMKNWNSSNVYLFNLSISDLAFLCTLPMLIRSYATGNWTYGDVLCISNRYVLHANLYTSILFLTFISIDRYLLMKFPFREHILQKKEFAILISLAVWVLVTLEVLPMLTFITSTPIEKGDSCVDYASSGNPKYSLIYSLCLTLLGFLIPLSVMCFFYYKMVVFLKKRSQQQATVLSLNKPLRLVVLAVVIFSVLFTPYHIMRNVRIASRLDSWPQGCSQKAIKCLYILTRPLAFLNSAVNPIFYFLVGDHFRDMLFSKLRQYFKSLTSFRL
# [2] = molecular target: 2-oxoglutarate receptor 1 (Homo sapiens, UniProt Q96P68); test: Antagonist activity at human GPR99 receptor expressed in CHO-K1 cells co-expressing Galpha and Gqi5 G-protein assessed as inhibition of succinate-induced increase in intracellular calcium level at by FLIPR assay; assay type: functional, cell-based
# [3] = Terminal half life in Wistar rat at 5 mg/kg, iv; assay type: ADME, organism-based; design: dose 5 mg/kg, route intravenous; conditions: in vivo, read-out: beta t1/2 (converted)
# Succinate receptor 1 [4] = molecular target: T2, Succinate receptor 1 (Homo sapiens, UniProt Q9BXA5); test: Antagonist activity at human GPR91 receptor expressed in CHO-K1 cells co-expressing Galpha and Gqi5 G-protein assessed as inhibition of succinate-induced increase in intracellular calcium level by FLIPR assay; assay type: functional, cell-based
# T2 sequence (Q9BXA5 whole entry): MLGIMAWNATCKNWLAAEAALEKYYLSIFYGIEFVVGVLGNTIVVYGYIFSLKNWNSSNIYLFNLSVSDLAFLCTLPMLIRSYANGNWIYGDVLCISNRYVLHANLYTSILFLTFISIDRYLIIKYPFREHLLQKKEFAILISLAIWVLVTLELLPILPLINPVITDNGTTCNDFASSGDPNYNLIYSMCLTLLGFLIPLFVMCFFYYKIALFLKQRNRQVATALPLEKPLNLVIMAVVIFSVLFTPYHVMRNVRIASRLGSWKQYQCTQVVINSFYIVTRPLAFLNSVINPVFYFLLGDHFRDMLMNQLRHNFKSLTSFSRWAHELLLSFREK
# [5] = Cmax in Wistar rat at 5 mg/kg, iv by LC/MS/MS analysis; assay type: ADME, organism-based; design: dose 5 mg/kg, route intravenous; conditions: in vivo
# [6] = Cmax in Wistar rat at 50 mg/kg, ip by LC/MS/MS analysis; assay type: ADME, organism-based; design: dose 50 mg/kg, route intraperitoneal; conditions: in vivo
# [7] = Plasma concentration in Wistar rat plasma at 50 mg/kg, ip at 8 hrs; assay type: ADME, organism-based; design: dose 50 mg/kg, route intraperitoneal
# [8] = Plasma concentration in Wistar rat plasma at 50 mg/kg, ip at 2 hrs; assay type: ADME, organism-based; design: dose 50 mg/kg, route intraperitoneal
# [9] = Drug concentration in Wistar rat kidney at 50 mg/kg, ip after 4 hrs; assay type: ADME, organism-based; design: dose 50 mg/kg, route intraperitoneal; conditions: read-out: Drug uptake
# [10] = Tmax in Wistar rat at 50 mg/kg, ip; assay type: ADME, organism-based; design: dose 50 mg/kg, route intraperitoneal; conditions: in vivo
# Liver microsomes = test: Intrinsic clearance in rat liver microsomes preincubated for 5 mins before addition of NADPH measured after 30 mins by LC/MS/MS analysis; assay type: ADME, Microsome; conditions: 0.5 h
# Rattus norvegicus [11] = test: Hypotensive activity in Wistar rat assessed as inhibition of succinate-induced increase in mean arterial pressure at 50 mg/kg, ip after 4 hrs post dose; assay type: functional; conditions: Artery, route intraperitoneal
# [12] = Plasma protein binding in Wistar rat at 50 mg/kg, ip; assay type: ADME, organism-based; design: dose 50 mg/kg, route intraperitoneal; conditions: read-out: PPB
# [13] = Plasma concentration in Wistar rat plasma at 50 mg/kg, ip at 4 hrs; assay type: ADME, organism-based; design: dose 50 mg/kg, route intraperitoneal
# Rattus norvegicus [14] = test: Hypotensive activity in Wistar rat assessed as inhibition of succinate-induced increase in mean arterial pressure at 50 mg/kg, ip after 2 hrs post dose; assay type: functional; conditions: Artery, route intraperitoneal
# [15] = AUC (0 to 8 hrs) in Wistar rat plasma at 50 mg/kg, ip; assay type: ADME, organism-based; design: time < 8 hr, dose 50 mg/kg, route intraperitoneal
# [16] = Volume of distribution at steady state in Wistar rat at 5 mg/kg, iv; assay type: ADME, organism-based; design: dose 5 mg/kg, route intravenous; conditions: in vivo, read-out: Vdss
# [17] = Plasma clearance in Wistar rat at 5 mg/kg, iv; assay type: ADME, organism-based; design: dose 5 mg/kg, route intravenous
# [18] = Plasma concentration in Wistar rat plasma at 100 mg/kg, ip at 4 hrs; assay type: ADME, organism-based; design: dose 100 mg/kg, route intraperitoneal
# [19] = Tmax in Wistar rat at 100 mg/kg, ip; assay type: ADME, organism-based; design: dose 100 mg/kg, route intraperitoneal; conditions: in vivo
# [20] = Plasma concentration in Wistar rat plasma at 100 mg/kg, ip at 2 hrs; assay type: ADME, organism-based; design: dose 100 mg/kg, route intraperitoneal
# Rattus norvegicus [21] = test: Hypotensive activity in Wistar rat assessed as inhibition of succinate-induced increase in mean arterial pressure at 100 mg/kg, ip after 4 hrs post dose; assay type: functional; conditions: Artery, route intraperitoneal
# [22] = AUC (0 to 24 hrs) in Wistar rat plasma at 100 mg/kg, ip; assay type: ADME, organism-based; design: time < 24 hr, dose 100 mg/kg, route intraperitoneal
# Kidney = test: Drug concentration in Wistar rat kidney at 100 mg/kg, ip; assay type: ADME, organism-based; design: dose 100 mg/kg, route intraperitoneal; conditions: in vivo, read-out: Drug uptake
# Rattus norvegicus [23] = test: Hypotensive activity in Wistar rat assessed as inhibition of succinate-induced increase in mean arterial pressure at 100 mg/kg, ip after 2 hrs post dose; assay type: functional; conditions: Artery, route intraperitoneal
# [24] = Volume of distribution at steady state in Wistar rat at 3 mg/kg, iv; assay type: ADME, organism-based; design: dose 3 mg/kg, route intravenous; conditions: in vivo, read-out: Vdss
# [25] = Plasma concentration in Wistar rat plasma at 100 mg/kg, ip at 8 hrs; assay type: ADME, organism-based; design: dose 100 mg/kg, route intraperitoneal
# [26] = Terminal half life in Wistar rat at 3 mg/kg, iv; assay type: ADME, organism-based; design: dose 3 mg/kg, route intravenous; conditions: in vivo, read-out: beta t1/2 (converted)
# [27] = Plasma protein binding in Wistar rat at 100 mg/kg, ip; assay type: ADME, organism-based; design: dose 100 mg/kg, route intraperitoneal; conditions: read-out: PPB
# [28] = Plasma clearance in Wistar rat at 3 mg/kg, iv; assay type: ADME, organism-based; design: dose 3 mg/kg, route intravenous
# [29] = Cmax in Wistar rat at 100 mg/kg, ip by LC/MS/MS analysis; assay type: ADME, organism-based; design: dose 100 mg/kg, route intraperitoneal; conditions: in vivo
# [30] = Cmax in Wistar rat at 3 mg/kg, iv by LC/MS/MS analysis; assay type: ADME, organism-based; design: dose 3 mg/kg, route intravenous; conditions: in vivo
# [31] = Terminal half life in Wistar rat plasma at 30 mg/kg, po; assay type: ADME, organism-based; design: dose 30 mg/kg, route oral; conditions: read-out: beta t1/2 (converted)
# [32] = Cmax in Wistar rat at 30 mg/kg, po by LC/MS/MS analysis; assay type: ADME, organism-based; design: dose 30 mg/kg, route oral; conditions: in vivo
# [33] = Plasma concentration in Wistar rat plasma at 30 mg/kg, po at 2 hrs; assay type: ADME, organism-based; design: dose 30 mg/kg, route oral
# [34] = Plasma concentration in Wistar rat plasma at 30 mg/kg, po at 4 hrs; assay type: ADME, organism-based; design: dose 30 mg/kg, route oral
# [35] = AUC (0 to 24 hrs) in Wistar rat plasma at 30 mg/kg, po; assay type: ADME, organism-based; design: time < 24 hr, dose 30 mg/kg, route oral
# [36] = Tmax in Wistar rat at 30 mg/kg, po; assay type: ADME, organism-based; design: dose 30 mg/kg, route oral; conditions: in vivo
# [37] = Oral bioavailability in Wistar rat plasma at 30 mg/kg; assay type: ADME, organism-based
# B1 bradykinin receptor = molecular target: T3, B1 bradykinin receptor (Homo sapiens, UniProt P46663); test: Antagonist activity at human bradykinin B1 receptor expressed in […] cells assessed as inhibition of calcium flux by FLIPR assay; assay type: functional, cell-based
# T3 sequence (P46663 whole entry): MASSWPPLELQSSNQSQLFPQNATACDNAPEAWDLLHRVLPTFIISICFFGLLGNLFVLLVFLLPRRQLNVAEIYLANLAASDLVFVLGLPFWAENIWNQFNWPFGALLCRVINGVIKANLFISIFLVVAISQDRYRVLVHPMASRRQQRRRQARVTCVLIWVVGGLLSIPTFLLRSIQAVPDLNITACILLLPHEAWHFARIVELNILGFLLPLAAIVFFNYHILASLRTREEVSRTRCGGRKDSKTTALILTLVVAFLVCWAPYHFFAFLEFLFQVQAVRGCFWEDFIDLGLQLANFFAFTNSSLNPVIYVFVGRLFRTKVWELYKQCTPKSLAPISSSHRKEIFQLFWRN
# 2-oxoglutarate receptor 1, sequence (Q96P68 whole entry, looked up): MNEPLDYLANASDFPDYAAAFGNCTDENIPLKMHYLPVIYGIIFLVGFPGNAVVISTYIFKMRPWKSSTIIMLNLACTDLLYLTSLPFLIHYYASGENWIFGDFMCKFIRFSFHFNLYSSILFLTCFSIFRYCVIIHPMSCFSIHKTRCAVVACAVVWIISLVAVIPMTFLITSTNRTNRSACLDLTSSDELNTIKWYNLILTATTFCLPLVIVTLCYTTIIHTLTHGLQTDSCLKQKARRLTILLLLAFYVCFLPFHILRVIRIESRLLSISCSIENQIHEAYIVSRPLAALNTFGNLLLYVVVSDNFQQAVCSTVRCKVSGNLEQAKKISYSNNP
SMILES,IC50 (Succinate receptor 1 [1]),IC50 [2],half-life [3],IC50 (Succinate receptor 1 [4]),Cmax [5],Cmax [6],concentration at 8 h [7],concentration at 2 h [8],Tmax [10],Intrinsic clearance (Liver microsomes),concentration at 4 h [13],AUC(0-t) at 8 h [15],Vd [16],clearance [17],half-life [31],Cmax [32],concentration at 2 h [33],concentration at 4 h [34],AUC(0-t) at 24 h [35],Tmax [36],further results
O=C(CCCc1ccc2cccnc2n1)NCc1cc(-c2ccc(F)c(C(F)(F)F)c2)no1,0.135 µM,> 30 µM,1.1 h,0.035 µM,40 µM,22 µM,19 µM,22 µM,2 h,0.12 nmol/min/mg,19 µM,267 µM·h,0.36 L/kg,4.7 mL/min/kg,0.9 h,37 µM,11.3 µM,2.6 µM,69 µM·h,0.5 h,bioavailability [37]: 26%
FC(F)(F)Oc1ccc(-c2nnc(CCCCc3ccc4cccnc4n3)o2)cc1Cl,,> 20 µM,1.3 h,0.18 µM,56 µM,,,,,0.17 nmol/min/mg,,,0.2 L/kg,2 mL/min/kg,3.4 h,72 µM,70 µM,40.5 µM,472 µM·h,1.5 h,bioavailability [37]: 87%
COC(=O)c1c(F)cccc1-c1ccc(CNC(=O)CCCc2ccc3cccnc3n2)c(F)c1,,,,0.8 µM,,,,,,0.7 nmol/min/mg,,,,,,,,,,,IC50 (B1 bradykinin receptor): 2.5 µM
FC(F)(F)c1cc(-c2nnc(CCCCc3ccc4cccnc4n3)o2)ccc1Cl,0.435 µM,> 30 µM,0.3 h,0.16 µM,92 µM,21 µM,15 µM,19 µM,2.7 h,0.3 nmol/min/mg,20 µM,304 µM·h,0.1 L/kg,4.8 mL/min/kg,,,,,,,

# Stronger by IC50 (Succinate receptor 1 [4]), values ahead:
IC50 (Succinate receptor 1 [1]),IC50 [2],half-life [3],IC50 (Succinate receptor 1 [4]),Cmax [5],Cmax [6],concentration at 8 h [7],concentration at 2 h [8],Tmax [10],Intrinsic clearance (Liver microsomes),concentration at 4 h [13],AUC(0-t) at 8 h [15],Vd [16],clearance [17],half-life [31],Cmax [32],concentration at 2 h [33],concentration at 4 h [34],AUC(0-t) at 24 h [35],Tmax [36],SMILES,further results
0.007 µM,> 30 µM,0.1 h,0.03 µM,19 µM,3.7 µM,1.1 µM,1.8 µM,1.8 h,1.2 nmol/min/mg,2 µM,17.4 µM·h,0.5 L/kg,64.7 mL/min/kg,,,,,,,Cc1cccc(-c2ccc(CNC(=O)CCCc3ccc4cccnc4n3)cc2)c1,concentration at 4 h [9]: 7 µM; inhibition in vivo at 50 mg/kg (Rattus norvegicus [11]): 67%; fraction unbound [12]: 0.01; inhibition in vivo at 50 mg/kg (Rattus norvegicus [14]): 71%
,> 30 µM,,0.007 µM,,,,,,0.2 nmol/min/mg,,,,,,,,,,,C[C@H](NC(=O)Cc1ccc(-c2ccc3cccnc3n2)cc1)c1ccc(-c2ccc(F)c(C(F)(F)F)c2)cc1,concentration at 4 h [18]: 0.33 µM; Tmax [19]: 4.9 h; concentration at 2 h [20]: 0.24 µM; inhibition in vivo at 100 mg/kg (Rattus norvegicus [21]): 76%; AUC(0-t) at 24 h [22]: 4.3 µM·h; concentration (Kidney): 8 µM; inhibition in vivo at 100 mg/kg (Rattus norvegicus [23]): 59%; Vd [24]: 1 L/kg; concentration at 8 h [25]: 0.28 µM; half-life [26]: 0.9 h; fraction unbound [27]: 0.01; clearance [28]: 36 mL/min/kg; Cmax [29]: 0.4 µM; Cmax [30]: 9.8 µM
